Values quoted from earlier work, collected in PMC7582727, “Functional Impact of BeKm-1, a High-Affinity hERG Blocker, on Cardiomyocytes Derived from Human-Induced Pluripotent Stem Cells” (International Journal of Molecular Sciences, 2020).

How the values were obtained:
hERG channel = details: cited from earlier work
Source text: The Kv11.1 channel (hERG) and the corresponding IKr current play a major role in cardiac repolarization (Figure S1). […] Long QT syndrome is one of the cardiac diseases that has been studied in the greatest detail. Type II long QT syndrome is associated with a decrease in IKr currents, as opposed to short QT syndrome, which is associated with increased IKr currents. Type II long QT syndrome is called “inherited” when a mutation in the gene encoding hERG, KCNH2, gives rise to a loss of ... || In this report, we focused on BeKm-1, a toxin that was originally isolated from the venom of Buthus eupeus scorpion. […] According to its 3D structure, the peptide adopts an α-helix and three β-strands organized in a twisted antiparallel β-sheet. By homology with other toxins, BeKm-1 is a member of the γ-KTx subfamily of scorpion toxins.

integrated models = details: ref [15]; cited from earlier work
rabbit isolated hearts = details: ref [14]; cited from earlier work
hiPS-CMs = details: ref [13]; cited from earlier work
Source text: In this study, we describe the effects of the high-affinity hERG blocker BeKm-1 on hiPS-CMs. By using a variety of approaches, we efficiently assessed these effects on the electrophysiological, calcium handling, and contractile properties of hiPS-CMs providing a large response picture of this natural peptide.

Row | Compound | IC50 (hERG channel) | face of hERG channel acted on (hERG channel) | hERG channel block (hERG channel; non-selective compounds, no reference given) | bradycardic effects (integrated models) | chronotropic response, rabbit isolated hearts (rabbit isolated hearts) | chronotropic response, hiPS-CMs (hiPS-CMs)
2 | CN(C)CCCN1c2ccccc2Sc2ccc(Cl)cc21 [chlorpromazine] |  |  | block hERG channels |  |  | 
3 | CN(CCOc1ccc(NS(C)(=O)=O)cc1)CCc1ccc(NS(C)(=O)=O)cc1 [dofetilide] | […] | […] |  | bradycardic effects | negative chronotropic response | negative chronotropic response
